How the values were obtained:
Format in all cases: cell-based, human
HCT-116 cells = assay: ABT-263 sensitization, CellTiter Glo cell viability after reverse transfection of miRNA/siRNA; settings: for sensitization of HCT-116 cells to ABT-263 (decrease in cell viability) / sensitization of HCT-116 cells to ABT-263, in words: 1 μM ABT-263, 48 hours; for sensitization of HCT-116 cells to ABT-263 (decrease in cell viability): 50 nM miRNA mimic reverse transfected; for sensitization of HCT-116 cells to ABT-263, in words: reverse transfection (miRNA 50 nM, siRNA 12.5 nM)
Method: HCT-116 and CHL1 cells were purchased from the American Type Culture Collection (ATCC) and cultured in DMEM (Invitrogen Corp., Grand Island, N.Y.) supplemented with 10% fetal bovine serum (Invitrogen) and 1% penicillin/streptomycin (Invitrogen). All cell lines were maintained in a humidified chamber at 37° C. containing 5% CO2. These cells were authenticated by morphological, cell proliferation and Mycoplasma tests recommended in the ATCC Technical Bulletin no, 8 (2007). Cells were reverse transfected at 1.5−2.5×10^4 cells/[…] in 96-well tissue culture plates. siRNA or miRNA transfection was performed using Lipofectamine 2000 according to manufacturer's instructions (Invitrogen). For Mcl-1 and Bcl-xl siRNA transfections, a final concentration of 12.5 nM siRNA was used. For miRNA transfections, a final concentration of 50 nM miRNA was used. The cells were then grown in medium without antibiotic for 2 days before harvesting. For reporter experiments, 100 ng of pcDNA3-Mcl-1-3′UTR-luciferase reporter construct (21) was included in the liposome complex mix. Forty-eight hours after transfection, cells were assayed for viability using CellTiter Glo Luminescent cell viability assay according to the manufacturer's protocol (Promega). Caspase 3/7 activity was measured using the Caspase-Glo 3/7 assay (Promega). Luciferase activity was measured using the Steady-Glo reagent according to the manufacturer's protocol (Promega).
HCT-116 cells were reverse transfected as described in Example 1 above. Three replica plates were treated with 1 μM ABT-263 in media. […] HCT-116 cells were reverse transfected with sensitizing miRNAs in the presence or absence of 1 μM ABT-263 for 48 hours. Cell viability was measured with CellTiter Glo assay. MiR-29 and miR-125 were used as positive and negative controls for this assay. miRNAs that sensitize HCT-116 cells to ABT-263 by more than 25% are shown. FIG. 1B is a bar graph showing miRNAs that sensitize CHL1 cells to ABT-263. CHL1 cells were reverse transfected with sensitizing miRNAs in the presence or absence of 1 μM ABT-263 for 48 hours. Cell viability was measured with CellTiter Glo assay. Only miRNAs that sensitize HCT-116 cells to ABT-263 by more than 25% were shown. (See FIG. 6 for the complete list of 42 miRNAs). FIG. 1C is a bar graph showing modulation of Mcl-1 protein expression by sensitizing miRNAs in CHL1 cells. CHL1 cells were reverse transfected with sensitizing miRNAs. Mcl-1 expression was measured using a Luminex-based assay as described in the Methods section.
To identify miRNAs that modulate sensitivity of cells to Bcl-2 family inhibitor ABT-263, an miRNA “sensitization” screen was performed using an miRNA mimic library in the presence of ABT-263. The screen was conducted in a colon cancer cell line HCT-116. […] Synthetic miRNA mimics were reverse transfected into HCT-116 cells in the presence or absence of ABT-263 (FIG. 4). Reverse transfection of Mcl-1 siRNA and predicted Mcl-1-targeting miRNAs sensitized HCT-116 cells to 1 μM ABT-263 after 48 hours.
HCT-116 cells were reverse transfected with a library of 810 annotated miRNA mimics in triplicate in the presence of 1 μM ABT-263 (FIG. 5A). Viability of cells was determined after 2 days. […] Z-scores were used to select candidate miRNAs for subsequent experiments. Of 810 miRNA mimics, 80 increased cell death in the presence of ABT-263. Thirty-eight of these 80 miRNAs either reduced cell viability in the absence of ABT-263 (Z←1.5) or represented mimic replicates from the screen, and therefore were not subjected to further testing. The remaining 42 miRNAs were tested in a secondary screen to assess their effect in the presence or absence of ABT-263. MiR-29 and miR-125 were used as control for this screen. […] FIG. 6A identifies miRNAs that sensitize HCT-116 cells to ABT-263. HCT-116 cells were reverse transfected with sensitizing miRNAs in the presence or absence of 1 μM ABT-263 for 48 hours. Cell viability was measured with CellTiter Glo assay. […]

Mcl-1 = Mcl-1 protein expression, Luminex-based assay, in HCT-116 cells; settings: 50 nM miRNA or Mcl-1 siRNA, 48 hours
Text: The present disclosure also provides a method for determining whether an miRNA increases sensitivity of a subject to treatment with a Bcl-2 family inhibitor. The method includes a) reverse transfecting a population of cancer cells with the candidate miRNA; b) contacting the cells with an effective amount of the Bcl-2 family inhibitor, and c) determining Mcl-1 expression level in the cells, wherein a decrease in Mcl-1 expression is indicative that the miRNA increases sensitivity of the subject to treatment with the Bcl-2 family inhibitor. Mcl-1 protein expression can be measured using a liquid phase immunoassay using Luminex beads. In brief, an Mcl-1 capture antibody is conjugated to Luminex beads (bead region 9) and an Mcl-1 detection antibody conjugated to biotin. […] Cell assay buffer is added after filtering and the plate is read using a Luminex 200 station. […]
Mcl-1 protein expression was measured using a new Mcl-1 assay based on the Luminex technology. […] Cell assay buffer was added after filtering and the plate was read using a Luminex 200 station. The liquid-phase quantitative protein assay was used to measure the levels of Mcl-1 in cells. […] Using this new Mcl-1 quantitative assay, the effect of these miRNAs on the Mcl-1 protein levels in CHL1 cells was measured. […]

Mcl-1 3′-UTR = Mcl-1 3′-UTR luciferase reporter assay in HCT-116 cells; settings: HCT-116 cells cotransfected with 100 ng reporter, 48 hours
Method: (§1) HCT-116 and CHL1 cells were purchased from the American Type Culture Collection (ATCC) and cultured in DMEM (Invitrogen Corp., Grand Island, N.Y.) supplemented with 10% fetal bovine serum (Invitrogen) and 1% penicillin/streptomycin (Invitrogen). All cell lines were maintained in a humidified chamber at 37° C. containing 5% CO2. These cells were authenticated by morphological, cell proliferation and Mycoplasma tests recommended in the ATCC Technical Bulletin no, 8 (2007). Cells were reverse transfected at 1.5−2.5×10^4 cells/[…] in 96-well tissue culture plates. siRNA or miRNA transfection was performed using Lipofectamine 2000 according to manufacturer's instructions (Invitrogen). […] Caspase 3/7 activity was measured using the Caspase-Glo 3/7 assay (Promega). Luciferase activity was measured using the Steady-Glo reagent according to the manufacturer's protocol (Promega).
MiRNA could modulate sensitivity to ABT-263 through several mechanisms: by directly targeting the Mcl-1 gene 3′-UTR and repressing protein translation or by targeting molecules involved in regulating Mcl-1 expression or function. […] Measure was taken of the effect of two Mcl-1 siRNAs and the twelve strongest sensitizing miRNAs on the Mcl-1 protein levels in HCT-116 cells using the Mcl-1 quantitative assay described above. […] Mcl-1 protein expression was measured using the Mcl-1 Luminex assay. […]

CHL1 cells = assay: ABT-263 sensitization, CellTiter Glo cell viability after reverse transfection of miRNA/siRNA; settings: no ABT-263
Method: as §1
HCT-116 cells were reverse transfected as described in Example 1 above. […] Cell viability was measured with CellTiter Glo assay. […] Cell viability was measured with CellTiter Glo assay. […] Mcl-1 expression was measured using a Luminex-based assay as described in the Methods section.
HCT-116 cells were reverse transfected with a library of 810 annotated miRNA mimics in triplicate in the presence of 1 μM ABT-263 (FIG. 5A). Viability of cells was determined after 2 days. […] Cell viability was measured with CellTiter Glo assay. […]

For “miR-193a: sensitizing human miRNA, sequence AACUGGCCUACAAAGUCCCAGU (listed as RNA, chemistry not given here)”, which “sensitization of HCT-116 cells to ABT-263 (decrease in cell viability)” value (HCT-116 cells) is on record?
Its value is ~50%.

How did the “effect of ABT-263 alone on HCT-116 cell viability” value (HCT-116 cells; in the presence of the control siRNA and miRNA) turn out when `CC1(C)CCC(c2ccc(Cl)cc2)=C(CN2CCN(c3ccc(C(=O)NS(=O)(=O)c4ccc(N[C@H](CCN5CCOCC5)CSc5ccccc5)c(S(=O)(=O)C(F)(F)F)c4)cc3)CC2)C1` [ABT-263, N-(4-(4-((2-(4-chlorophenyl)-5,5-dimethyl-1-cyclohex-1-en-1-yl)methyl)pip-erazin-1-yl)benzoyl)-4-(((1R)-3-(morpholin-4-yl)-1-((phenylsulfanyl)methyl-)propyl)amino)-3-((trifluoromethyl)sulfonyl)benzenesulfonamide] was run?
Its value is ≤ 25%.

What does the source list for “miR-744*: sensitizing human miRNA, sequence CUGUUGCCACUAACCUCAACCU (listed as RNA, chemistry not given here)”?
Mcl-1 protein expression in HCT-116 cells (Mcl-1): affected the Mcl-1 protein expression; luciferase activity of Mcl-1 3′-UTR reporter (Mcl-1 3′-UTR): did not reduce the luciferase activity

How did the “sensitization of HCT-116 cells to ABT-263, in words” value (from here on “sensitization … in words”) (HCT-116 cells) turn out when “miR-125: control miRNA (negative control), sequence UCCCUGAGACCCUUUAACCUGUGA (listed as RNA, chemistry not given here)” was run?
The value was “did not sensitize”.

Which “Mcl-1 protein expression in HCT-116 cells” value (Mcl-1) does the source give for “miR-605: sensitizing human miRNA, sequence UAAAUCCCAUGGUGCCUUCUCCU (listed as RNA, chemistry not given here)” here?
Its value is “affected the Mcl-1 protein expression”.

What about the “luciferase activity of Mcl-1 3′-UTR reporter” value (Mcl-1 3′-UTR) of the same compound?
Its value is “did not reduce the luciferase activity”.

For “miR-29: control miRNA (positive control), sequence UAGCACCAUUUGAAAUCAGUGUU (listed as RNA, chemistry not given here)”, which “sensitization … in words” value (HCT-116 cells) is on record?
The value was “much weaker”.

How did the “sensitization … in words” value (HCT-116 cells) turn out when “Mcl-1 siRNA: Mcl-1 targeting siRNA, sequence GCATCGAACCATTAGCAGATT (listed as DNA, chemistry not given here)” was run?
Its value is “significantly sensitize”.

What about the “HCT-116 cell viability after transfection in the absence of ABT-263” value (HCT-116 cells; no ABT-263) of the same compound?
Its value is “would not affect cell viability”.

What about the “CHL1 cell viability after transfection in the absence of ABT-263” value (CHL1 cells) of the same compound?
Its value is “affected CHL1 cell viability”.

With “miR-153: sensitizing human miRNA, sequence UUGCAUAGUCACAAAAGUGAUC (listed as RNA, chemistry not given here)” as the compound, how does the “sensitization of HCT-116 cells to ABT-263 (decrease in cell viability)” value (HCT-116 cells) read?
The value was ~50%.

Reference: US8742083B1, “Panel of micrornas that silence the MCL-1 gene and sensitize cancer cells to ABT-263” (AbbVie Inc., priority 2009, dated 2014)
